Measured values reported in the supplement of paper PMC4858399.
Where a name gives a salt, the structure may show the parent alone.

Experiments:
[1] = tested on: Caenorhabditis elegans N2; experiment: lowest effective concentration for larval growth inhibition (size below effect threshold); higher = less potent; details: exposure time 48 h
Method in brief: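 L1 larvae of C. elegans N2 (50 per 96-well) were grown in K-medium with killed bacteria and 1% DMSO, with the chemical at 0.5, 1, 5, 10, 50, 100 or 200 µM, for 48 h at 20°C. Per-worm extinction from the Biosort stood for size and was log-transformed into well means. For each chemical, the lowest effective concentration is the first dose where plate-adjusted mean size falls under the threshold and stays under it at the higher doses, using a threshold of 5.665.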

[2] = tested on: Caenorhabditis elegans N2; experiment: mean nematode size ln(EXT) after 48 h, plate-adjusted (DMSO control set to 6) (ln(EXT), control-adjusted); higher = larger nematodes / less growth inhibition; details: exposure time 48 h
Method in brief: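 In K-medium with killed OP50, 1% DMSO and 0.5–200 µM chemical, synchronised N2 L1 larvae of C. elegans (50 per well) grew for 48 h at 20°C. Extinction was read for every worm on the Biosort, with debris removed by a growth model. Natural-log values averaged per well gave mean size, which was corrected per plate by subtracting the vehicle control mean and adding 6.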

Row | SMILES | lowest effective concentration [1] | mean nematode size ln(EXT) (ln) ([2]; 0.5 µM) | mean nematode size ln(EXT) (ln) ([2]; 1 µM) | mean nematode size ln(EXT) (ln) ([2]; 5 µM) | mean nematode size ln(EXT) (ln) ([2]; 10 µM) | mean nematode size ln(EXT) (ln) ([2]; 50 µM) | mean nematode size ln(EXT) (ln) ([2]; 100 µM) | mean nematode size ln(EXT) (ln) ([2]; 200 µM)
1 | CC1(C)C(=O)N(Cl)C(=O)N1Cl [1,3-Dichloro-5,5-dimethylhydantoin] | > 200 µM | 5.81 | 5.79 | 5.79 | 5.82 | 5.83 | 5.8 | 5.67
2 | CCCCC(CC)COC(=O)CCCCC(=O)OCc1ccccc1 (centres undefined) [Benzyloctyl adipate (BOA)] | > 200 µM | 5.99 | 5.97 | 6.03 | 6.02 | 5.92 | 5.77 | 5.89
3 | Nc1ccc(C(=O)O)cc1 [4-Aminobenzoic acid] | > 200 µM | 5.84 | 5.87 | 5.81 | 5.49 | 5.83 | 5.85 | 5.72
4 | CN(C)c1ccccc1 [N,N-Dimethylaniline] | > 200 µM | 5.97 | 6.02 | 6.03 | 6.01 | 6.08 | 6.02 | 5.73
5 | COC(=O)c1ccc(I)cc1S(=O)(=O)NC(=O)Nc1nc(C)nc(OC)n1 [Iodosulfuron-methyl-sodium] | > 200 µM | 6.1 | 6.11 | 5.88 | 6.04 | 6.15 | 6.07 | 5.89
6 | O=C1OC(=O)C2C3C=CC(C3)C12 (centres undefined) [4,7-Methanoisobenzofuran-1,3-dione, 3A,4,7,7A-tetrahydro-] | > 200 µM | 5.86 | 5.82 | 5.84 | 5.82 | 5.8 | 5.52 | 5.71
7 | CCN(C(=O)c1cc(C)cc(OC[C@H](C)Nc2ccncc2)c1)C(C)C | > 200 µM | 5.67 | 5.78 | 5.59 | 5.63 | 5.56 | 5.61 | 5.82
8 | CCC(C)c1ccccc1O (centres undefined) [2-(Butan-2-yl)phenol] | > 200 µM | 5.9 | 5.85 | 5.89 | 5.94 | 5.86 | 5.82 | 5.7
9 | CNC(=O)Oc1ccccc1OC(C)C [Propoxur] | > 200 µM | 6.04 | 5.9 | 6.09 | 6.03 | 5.83 | 6.46 | 5.8
10 | CN(C)C(=S)S [Sodium dimethyldithiocarbamate] | > 200 µM | 5.93 | 5.79 | 5.88 | 5.82 | 5.85 | 5.81 | 5.69
11 | CCCN(CCC)C(=O)SCC [EPTC] | > 200 µM | 6.11 | 6.22 | 6.09 | 6 | 6.1 | 6.12 | 5.86
12 | O=C(O)c1cccc(Oc2ccccc2)c1 [3-Phenoxybenzoic acid] | > 200 µM | 5.87 | 5.85 | 5.89 | 5.87 | 5.83 | 5.83 | 5.91
13 | CC(C)CC(C)(O)C#CC(C)(O)CC(C)C (racemic) | > 200 µM | 5.77 | 5.77 | 5.78 | 5.78 | 5.64 | 5.75 | 5.81
14 | O=c1ccc2ccccc2o1 [Coumarin] | > 200 µM | 5.93 | 5.92 | 5.85 | 5.93 | 5.94 | 5.95 | 5.8
15 | CN1CCCC1=O [N-Methyl-2-pyrrolidone] | > 200 µM | 5.94 | 5.92 | 5.89 | 5.81 | 5.8 | 5.89 | 5.84
16 | C=CCc1ccc(O)c(OC)c1 [Eugenol] | > 200 µM | 5.89 | 5.9 | 5.93 | 5.98 | 5.91 | 5.87 | 5.77
17 | CCCCOC(=O)c1ccccc1C(=O)O [Monobutyl phthalate] | > 200 µM | 6.02 | 5.99 | 6.01 | 5.99 | 5.97 | 5.95 | 5.97
18 | CC(=O)OCC(COC(C)=O)OC(C)=O [Triacetin] | > 200 µM | 5.85 | 5.99 | 5.89 | 5.85 | 5.97 | 5.78 | 5.73
19 | CCCOc1ccc(S(=O)(=O)N2CCN(CC)CC2)cc1-c1nc2c(CC)n(Cc3ccccn3)nc2c(=O)[nH]1 | > 200 µM | 5.7 | 6.03 | 5.83 | 5.88 | 5.91 | 5.88 | 5.69
20 | CCc1cccc(CC)c1N [2,6-Diethylaniline] | > 200 µM | 5.78 | 5.83 | 5.81 | 5.8 | 5.82 | 5.84 | 5.68
21 | COC(=O)c1ccccc1C(=O)O [Methyl hydrogen phthalate] | > 200 µM | 6.07 | 6.01 | 6.1 | 6.07 | 6.14 | 6.14 | 5.95
22 | Nc1cccc(N)c1 [1,3-Benzenediamine] | > 200 µM | 5.8 | 5.84 | 5.87 | 5.89 | 5.87 | 6 | 5.78
23 | O=C(O)C(F)(F)C(F)(F)C(F)(F)C(F)(F)C(F)(F)F [Perfluorohexanoic acid] | > 200 µM | 5.47 | 5.55 | 5.6 | 5.67 | 5.69 | 5.73 | 5.86
24 | CC(C)(O)c1ccc(CNC(=O)c2cccnc2Oc2ccc(F)cc2)cc1 | > 200 µM | 5.74 | 6.01 | 5.84 | 5.9 | 5.91 | 5.9 | 5.72
25 | NC(=O)NO [Hydroxyurea] | > 200 µM | 6 | 5.97 | 5.92 | 5.93 | 5.75 | 5.63 | 5.73
26 | CCOC(=O)CCC(=O)OCC [Butanedioic acid, diethyl ester] | > 200 µM | 5.83 | 5.91 | 5.87 | 5.89 | 5.9 | 5.98 | 5.75
27 | CC1(C)C(C=C(Cl)Cl)C1C(=O)OC(C#N)c1ccc(F)c(Oc2ccccc2)c1 (centres undefined) [Cyfluthrin] | > 200 µM | 6.09 | 6.69 | 6.12 | 6.22 | 6.18 | 6.44 | 5.7

Row | SMILES | lowest effective concentration [1] | mean nematode size ln(EXT) (ln) ([2]; 0.5 µM) | mean nematode size ln(EXT) (ln) ([2]; 1 µM) | mean nematode size ln(EXT) (ln) ([2]; 5 µM) | mean nematode size ln(EXT) (ln) ([2]; 10 µM) | mean nematode size ln(EXT) (ln) ([2]; 50 µM) | mean nematode size ln(EXT) (ln) ([2]; 100 µM) | mean nematode size ln(EXT) (ln) ([2]; 200 µM)
28 | [As]#[In] [Indium arsenide] | > 200 µM | 5.78 | 5.76 | 5.77 | 5.75 | 5.54 | 5.53 | 5.86
29 | CCOC(=O)COc1cc(-c2nn(C)c(OC(F)F)c2Cl)c(F)cc1Cl [Pyraflufen-ethyl] | > 200 µM | 5.75 | 5.74 | 5.74 | 5.85 | 5.98 | 6.02 | 5.88
30 | Cc1cc(Cc2ccc(N)c(C)c2)ccc1N [4,4'-Methylene bis(2-methylaniline)] | > 200 µM | 5.83 | 5.82 | 5.8 | 5.78 | 5.79 | 5.83 | 5.71
31 | CC1=CC(=O)CC(C)(C)C1 [Isophorone] | > 200 µM | 5.84 | 5.72 | 5.76 | 5.71 | 5.75 | 5.94 | 5.79
32 | O=S1(=O)CCCO1 [1,3-Propane sultone] | > 200 µM | 5.83 | 5.87 | 5.85 | 5.78 | 5.84 | 5.91 | 5.76
33 | COC(=O)CCCC(=O)OC [Dimethyl glutarate] | > 200 µM | 5.91 | 5.94 | 5.9 | 6.02 | 6.01 | 6.04 | 5.78
34 | O=C1NS(=O)(=O)c2ccccc21.[Na] [Saccharin sodium salt hydrate] | > 200 µM | 5.88 | 5.93 | 5.96 | 5.9 | 5.89 | 5.9 | 5.79
35 | COCC(C)N(C(=O)CCl)c1c(C)csc1C (centres undefined) [Dimethenamid] | > 200 µM | 6.08 | 5.91 | 6.17 | 6.03 | 5.87 | 6.56 | 5.99
36 | CC(C)CC(C)O (centres undefined) [4-Methyl-2-pentanol] | > 200 µM | 6.05 | 5.96 | 6.02 | 5.89 | 5.97 | 5.96 | 5.79
37 | N#Cc1cc(Br)c(O)c(Br)c1 [Bromoxynil] | > 200 µM | 5.85 | 5.95 | 5.86 | 5.91 | 5.84 | 5.95 | 5.67
38 | CCNc1cccc(C)c1 [N-Ethyl-3-methylaniline] | 200 µM | 5.68 | 5.72 | 5.59 | 5.59 | 5.63 | 5.72 | 5.63
39 | Nc1nc(=S)c2[nH]cnc2[nH]1 [6-Thioguanine] | > 200 µM | 5.81 | 5.79 | 5.86 | 5.8 | 5.78 | 5.86 | 5.72
40 | CN/C(=N\[N+](=O)[O-])NCc1cnc(Cl)s1 [Clothianidin] | > 200 µM | 5.89 | 5.99 | 5.78 | 6.1 | 6.05 | 6.02 | 5.96
41 | CCCCC(CC)COC(=O)c1ccccc1C(=O)O (centres undefined) [Phthalic acid, mono-2-ethylhexyl ester] | > 200 µM | 5.83 | 5.76 | 5.77 | 6.08 | 6.11 | 6.44 | 5.88
42 | CCC(C)=NO [2-Butanone oxime] | > 200 µM | 5.68 | 5.89 | 6.05 | 5.8 | 5.82 | 5.68 | 6.2
43 | OC(CCl)CCl [1,3-Dichloro-2-propanol] | > 200 µM | 5.88 | 5.83 | 5.8 | 5.82 | 5.8 | 5.48 | 5.88
44 | CCCCCOC(C)=O [Pentyl acetate] | > 200 µM | 5.91 | 5.91 | 5.94 | 6 | 5.89 | 5.89 | 5.7
45 | c1cc(-c2ccncc2)ccn1 [4,4'-bipyridine] | > 200 µM | 5.97 | 5.91 | 5.89 | 5.94 | 5.95 | 6.01 | 5.85
46 | COc1cc(-c2ccc(N)c(OC)c2)ccc1N [3,3'-Dimethoxybenzidine dihydrochloride] | > 200 µM | 5.89 | 5.91 | 5.9 | 5.65 | 5.72 | 5.41 | 6.4
47 | C[N+](C)(C)CC1CO1 (centres undefined) [Oxiranemethanaminium, N,N,N-trimethyl-, chloride] | 200 µM | 5.78 | 5.84 | 5.81 | 5.54 | 5.83 | 5.84 | 5.66
48 | C#C[C@]1(O)CC[C@H]2[C@@H]3CCc4cc(O)ccc4[C@H]3CC[C@@]21C [17alpha-Ethynylestradiol] | > 200 µM | 6 | 5.96 | 5.9 | 5.91 | 6 | 5.86 | 5.92
49 | COc1cc(-c2nc(NC(=O)c3cc4cc(C)cc(C)c4n3CC(=O)O)sc2CCC2CCCCC2)c(OC)cc1Cl | > 200 µM | 5.89 | 5.89 | 5.88 | 5.87 | 5.92 | 5.83 | 5.69
50 | CC(C)C(=O)OCC(C)(C)C(OC(=O)C(C)C)C(C)C (centres undefined) [2,2,4-Trimethyl-1,3-pentanediol diisobutyrate] | > 200 µM | 5.99 | 6.03 | 5.99 | 5.9 | 5.99 | 5.94 | 5.68
51 | Cc1cccc(C)c1N [2,6-Dimethylaniline] | > 200 µM | 5.87 | 6.07 | 6.05 | 5.98 | 6 | 5.83 | 5.84
52 | CCNc1nc(N)nc(Cl)n1 [6-Deisopropylatrazine] | > 200 µM | 6.12 | 6.17 | 6.08 | 6.05 | 5.95 | 6 | 5.94
53 | COc1ccc2sc(C(=O)Nc3nnn[nH]3)c(OC(C)C)c2c1 | > 200 µM | 5.89 | 5.99 | 5.89 | 6.11 | 5.82 | 5.86 | 6.09
